In brackets after ≈: the same amount, converted by molar mass.
Experiments:
[1] = test system: Ab ATCC BAA1605 (strain J, multidrug-resistant); assay: MIC determination; assay type: cell-based; conditions: Acinetobacter baumannii; Table 1; multidrug-resistant strain; read-out: MIC Ab ATCC BAA 1605
Description: (§1) All bacterial strains listed above were stored at −80° C. All strains were streaked on Mueller-Hinton (MH) plates and allowed to grow at 37° C. overnight. Enough colonies were scraped from the plate and suspended in MH broth with vortexing to reach an attenuance at 600 nm (OD600) of ˜0.5. The resulting culture was diluted 1:1000 and added to the prepared serially doubly diluted compound solutions in 96-well plates. For M. smegmatis, a 1:100 dilution of the bacteria was done in MH. All MIC values were determined using 96-well plates with low evaporation seals at least in duplicate. For each row, one well was reserved for sterile control (which consisted of 200 μL of MH medium) and another well was reserved for growth control (which consisted of 100 μL of MH medium seeded with 100 μL of bacterial culture).
(§2) Minimum inhibitory concentrations (MIC) of all compounds from the series were measured in liquid cultures of different Ab strains by a double-dilution method in Mueller-Hinton broth. Initially, the activity of all 46 compounds against Ab ATCC 19606 (a control strain) and Ab ATCC BAA1605 (a multidrug-resistant strain) (Table 1; data shown for 27 representative compounds) was measured.

[2] = test system: all 43 strains of A. baumannii (41 CDC strains and 2 ATCC strains); assay: MIC value statistics for all A. baumannii strains; assay type: cell-based, Acinetobacter baumannii; conditions: of 43 A. baumannii strains
Description: as §1, with “[…].” for “For M. smegmatis, a 1:100 dilution of the bacteria was done in MH. All MIC values were determined using 96-well plates with low evaporation seals at least in duplicate.”
Having established that the observed activity is selective to A. baumannii, all synthesized compounds were tested against a panel of antibiotic resistant A. baumannii from the Antimicrobial Resistant (AR) Isolate Bank from the CDC along with strains I and J (Table Si). […]. Based on this statistical analysis, the best compound is 5e followed closely by 3e.

Ab ATCC 19606 (strain I) = assay: MIC determination (double dilution, Mueller-Hinton broth); assay type: cell-based, Acinetobacter baumannii; conditions: Acinetobacter baumannii, ATCC19606; Table 1; control strain; read-out: MIC Ab ATCC 19606
Description: as §1, with “Enough colonies were scraped from the plate and suspended in MH broth with vortexing to reach an attenuance at 600 nm (OD600) of ˜0.5.” left out
as §2

SMILES: O=C(NNc1cccc(F)c1)c1cc2ccccc2[nH]1 [Compound 14a]
- MIC [1]: 0.25 µg/mL (≈ 0.928 µM)
- number of compound/strain combinations with MIC value 0.25 μg/mL [2]: 13
- number of compound/strain combinations with MIC value 0.5 μg/mL [2]: 25
- number of compound/strain combinations with MIC value 1 μg/mL [2]: 5
- MIC (Ab ATCC 19606 (strain I)): 0.25 µg/mL (≈ 0.928 µM)

SMILES: O=C(NNc1cccc(F)c1)c1ccccn1 [Compound 2a]
- MIC [1]: 0.5 µg/mL (≈ 2.16 µM)
- number of compound/strain combinations with MIC value 0.25 μg/mL [2]: 10
- number of compound/strain combinations with MIC value 0.5 μg/mL [2]: 18
- number of compound/strain combinations with MIC value 1 μg/mL [2]: 10
- number of compound/strain combinations with MIC value 2 μg/mL [2]: 3
- number of compound/strain combinations with MIC value ≤0.125 μg/mL [2]: 2
- MIC (Ab ATCC 19606 (strain I)): 2 µg/mL (≈ 8.65 µM)

SMILES: CCOC(=O)CNNC(=O)c1ccccn1 [Compound 2g]
- number of compound/strain combinations with MIC value >64 μg/mL [2]: 43

SMILES: O=C(NNc1ccc(Cl)cc1)c1ncc(F)cc1F [Compound 7e]
- MIC [1]: 0.125 µg/mL (≈ 0.441 µM)
- number of compound/strain combinations with MIC value 0.25 μg/mL [2]: 28
- number of compound/strain combinations with MIC value 0.5 μg/mL [2]: 7
- number of compound/strain combinations with MIC value ≤0.125 μg/mL [2]: 8
- MIC (Ab ATCC 19606 (strain I)): 0.125 µg/mL (≈ 0.441 µM)

SMILES: O=C(NNc1cccc(F)c1)c1nc(F)ccc1F [Compound 8a]
- number of compound/strain combinations with MIC value 0.25 μg/mL [2]: 11
- number of compound/strain combinations with MIC value 0.5 μg/mL [2]: 12
- number of compound/strain combinations with MIC value 1 μg/mL [2]: 18
- number of compound/strain combinations with MIC value ≤0.125 μg/mL [2]: 2

SMILES: O=C(NNC1CCCCC1)c1ccc(F)cc1F [Compound 1h]
- number of compound/strain combinations with MIC value >64 μg/mL [2]: 43

SMILES: O=C(NNc1ccc(Cl)cc1)c1nc(F)ccc1F [Compound 8e]
- MIC [1]: 0.0625 µg/mL (≈ 0.22 µM)
- number of compound/strain combinations with MIC value 0.25 μg/mL [2]: 34
- number of compound/strain combinations with MIC value 0.5 μg/mL [2]: 2
- number of compound/strain combinations with MIC value ≤0.125 μg/mL [2]: 7
- MIC (Ab ATCC 19606 (strain I)): 0.125 µg/mL (≈ 0.441 µM)

SMILES: O=C(NNc1cccc(F)c1)c1ncc(F)cc1F [Compound 7a]
- number of compound/strain combinations with MIC value 0.25 μg/mL [2]: 5
- number of compound/strain combinations with MIC value 0.5 μg/mL [2]: 19
- number of compound/strain combinations with MIC value 1 μg/mL [2]: 18
- number of compound/strain combinations with MIC value ≤0.125 μg/mL [2]: 1

SMILES: O=C(NNc1ccc(Cl)cc1)c1cccnc1 [Compound 11e]
- number of compound/strain combinations with MIC value 0.25 μg/mL [2]: 15
- number of compound/strain combinations with MIC value 0.5 μg/mL [2]: 19
- number of compound/strain combinations with MIC value 1 μg/mL [2]: 4
- number of compound/strain combinations with MIC value ≤0.125 μg/mL [2]: 5

SMILES: CCOC(=O)CNNC(=O)c1cccc(F)n1 [Compound 5g]
- MIC [1]: > 64 µg/mL
- number of compound/strain combinations with MIC value >64 μg/mL [2]: 43
- MIC (Ab ATCC 19606 (strain I)): > 64 µg/mL

SMILES: CCOC(=O)CNNC(=O)c1ccc(F)cn1 [Compound 3g]
- MIC [1]: > 64 µg/mL
- number of compound/strain combinations with MIC value >64 μg/mL [2]: 43
- MIC (Ab ATCC 19606 (strain I)): > 64 µg/mL

SMILES: O=C(NNC1CCCCC1)c1cnccn1 [Compound 9h]
- number of compound/strain combinations with MIC value >64 μg/mL [2]: 43

SMILES: O=C(NNC1CCCCC1)c1cccnc1 [Compound 11h]
- MIC [1]: > 64 µg/mL
- number of compound/strain combinations with MIC value >64 μg/mL [2]: 43
- MIC (Ab ATCC 19606 (strain I)): > 64 µg/mL

SMILES: O=C(NNc1cccc(F)c1)c1cccc(Br)n1 [Compound 6a]
- MIC [1]: 0.5 µg/mL (≈ 1.61 µM)
- number of compound/strain combinations with MIC value 0.25 μg/mL [2]: 4
- number of compound/strain combinations with MIC value 0.5 μg/mL [2]: 16
- number of compound/strain combinations with MIC value 1 μg/mL [2]: 19
- number of compound/strain combinations with MIC value 2 μg/mL [2]: 4
- MIC (Ab ATCC 19606 (strain I)): 0.5 µg/mL (≈ 1.61 µM)

SMILES: CCC(=O)NNc1cccc(F)c1 [Compound 16a]
- number of compound/strain combinations with MIC value 0.25 μg/mL [2]: 10
- number of compound/strain combinations with MIC value 0.5 μg/mL [2]: 15
- number of compound/strain combinations with MIC value 1 μg/mL [2]: 14
- number of compound/strain combinations with MIC value ≤0.125 μg/mL [2]: 4

SMILES: O=C(NNc1cccc(F)c1)c1cccc(F)n1 [Compound 5a]
- number of compound/strain combinations with MIC value 0.25 μg/mL [2]: 1
- number of compound/strain combinations with MIC value 0.5 μg/mL [2]: 8
- number of compound/strain combinations with MIC value 1 μg/mL [2]: 25
- number of compound/strain combinations with MIC value 2 μg/mL [2]: 9

SMILES: O=C(NNc1cccc(F)c1)c1cnc2ccccc2n1 [Compound 13a]
- number of compound/strain combinations with MIC value 0.25 μg/mL [2]: 6
- number of compound/strain combinations with MIC value 0.5 μg/mL [2]: 19
- number of compound/strain combinations with MIC value 1 μg/mL [2]: 15
- number of compound/strain combinations with MIC value 2 μg/mL [2]: 3

SMILES: O=C(NNc1ccc(Cl)cc1)c1cnccn1 [Compound 9e]
- number of compound/strain combinations with MIC value 0.25 μg/mL [2]: 8
- number of compound/strain combinations with MIC value 0.5 μg/mL [2]: 19
- number of compound/strain combinations with MIC value 1 μg/mL [2]: 15
- number of compound/strain combinations with MIC value ≤0.125 μg/mL [2]: 1

SMILES: CCOC(=O)CNNC(=O)c1cnccn1 [Compound 9g]
- number of compound/strain combinations with MIC value >64 μg/mL [2]: 43

SMILES: O=C(NNc1ccc(Cl)cc1)c1cnc2ccccc2n1 [Compound 13e]
- MIC [1]: 0.25 µg/mL (≈ 0.837 µM)
- number of compound/strain combinations with MIC value 0.25 μg/mL [2]: 9
- number of compound/strain combinations with MIC value 0.5 μg/mL [2]: 22
- number of compound/strain combinations with MIC value 1 μg/mL [2]: 12
- MIC (Ab ATCC 19606 (strain I)): 0.5 µg/mL (≈ 1.67 µM)

SMILES: O=C(NNc1cccc(F)c1)c1cccnc1 [Compound 11a]
- MIC [1]: 0.5 µg/mL (≈ 2.16 µM)
- number of compound/strain combinations with MIC value 0.25 μg/mL [2]: 11
- number of compound/strain combinations with MIC value 0.5 μg/mL [2]: 26
- number of compound/strain combinations with MIC value 1 μg/mL [2]: 4
- number of compound/strain combinations with MIC value ≤0.125 μg/mL [2]: 2
- MIC (Ab ATCC 19606 (strain I)): 0.25 µg/mL (≈ 1.08 µM)

SMILES: O=C(NNc1cccc(F)c1)c1ccc(Br)cn1 [Compound 4a]
- MIC [1]: 0.5 µg/mL (≈ 1.61 µM)
- number of compound/strain combinations with MIC value 0.25 μg/mL [2]: 2
- number of compound/strain combinations with MIC value 0.5 μg/mL [2]: 8
- number of compound/strain combinations with MIC value 1 μg/mL [2]: 19
- number of compound/strain combinations with MIC value 2 μg/mL [2]: 14
- MIC (Ab ATCC 19606 (strain I)): 0.5 µg/mL (≈ 1.61 µM)

SMILES: O=C(NNc1cccc(F)c1)c1ccccc1 [Compound 10a]
- MIC [1]: 0.5 µg/mL (≈ 2.17 µM)
- number of compound/strain combinations with MIC value 0.25 μg/mL [2]: 19
- number of compound/strain combinations with MIC value 0.5 μg/mL [2]: 17
- number of compound/strain combinations with MIC value 1 μg/mL [2]: 1
- number of compound/strain combinations with MIC value ≤0.125 μg/mL [2]: 6
- MIC (Ab ATCC 19606 (strain I)): 0.25 µg/mL (≈ 1.09 µM)

SMILES: CCOC(=O)CNNC(=O)c1ccc(F)cc1F [Compound 1g]
- number of compound/strain combinations with MIC value >64 μg/mL [2]: 43

SMILES: O=C(NNc1cccc(F)c1)c1ccc(F)cc1F [Compound 1a]
- number of compound/strain combinations with MIC value 0.25 μg/mL [2]: 3
- number of compound/strain combinations with MIC value 0.5 μg/mL [2]: 26
- number of compound/strain combinations with MIC value 1 μg/mL [2]: 9
- number of compound/strain combinations with MIC value 2 μg/mL [2]: 4
- number of compound/strain combinations with MIC value ≤0.125 μg/mL [2]: 1

SMILES: O=C(NNc1cccc(F)c1)c1ccco1 [Compound 15a]
- number of compound/strain combinations with MIC value 0.25 μg/mL [2]: 21
- number of compound/strain combinations with MIC value 0.5 μg/mL [2]: 16
- number of compound/strain combinations with MIC value ≤0.125 μg/mL [2]: 6
